≈ marks a conversion by molar mass, not a printed value.
Assays:
K. pneumoniae SR1 = assay: MIC by agar dilution method; assay type: cell-based; details: Klebsiella pneumoniae, K.pneumoniae R1, inoculation amount 10^6 CFU/ml
Procedure: (§1) The minimal inhibitory concentration (MIC) was determined by an agar dilution method. That is, 1.0 ml each of an aqueous solution of a test compound diluted in series was poured into a petri dish. Trypticase soy agar (9 ml) was poured into the solution, and mixed. A suspension (about 10^6 CFU/ml) of test bacteria was smeared on the mixed agar plate.
(§2) Gram-positive bacteria; S. pyogenes C-203, S. agalactiae ATCC13813, S. pneumoniae Type I, S. pneumoniae SR16675(PC-R), S. mitis ATCC9811 Gram-negative bacteria: K. pneumoniae SR1, P. mirabilis PR-4 and P. vulgaris CN-329

P. mirabilis PR-4 = assay: MIC by agar dilution method; assay type: cell-based; details: Proteus mirabilis, PR4, inoculation amount 10^6 CFU/ml
Procedure: as §1, §2

P. vulgaris CN-329 = assay: MIC by agar dilution method; assay type: cell-based; details: Proteus vulgaris, CN329, inoculation amount 10^6 CFU/ml
Procedure: as §1, §2

S. agalactiae ATCC13813 = assay: MIC by agar dilution method; assay type: cell-based; details: Streptococcus agalactiae, inoculation amount 10^6 CFU/ml
Procedure: as §1, §2

S. mitis ATCC9811 = assay: MIC by agar dilution method; assay type: cell-based; details: Streptococcus mitis, inoculation amount 10^6 CFU/ml
Procedure: as §1, §2

[1] = system: S. pneumoniae SR16675(PC-R); assay: MIC by agar dilution method; assay type: cell-based; details: Streptococcus pneumoniae, inoculation amount 10^6 CFU/ml
Procedure: as §1, §2

S. pneumoniae Type I = assay: MIC by agar dilution method; assay type: cell-based; details: Streptococcus pneumoniae, inoculation amount 10^6 CFU/ml
Procedure: as §1, §2

S. pyogenes C-203 = assay: MIC by agar dilution method; assay type: cell-based; details: Streptococcus pyogenes, C203, inoculation amount 10^6 CFU/ml
Procedure: as §1, §2

S.aureus Smith = assay: Treating effect on infections in mouse; assay type: in vivo; details: Staphylococcus aureus, S.aureus Smith infection
S.pneumoniae Type I = assay: Treating effect on infections in mouse; assay type: in vivo; details: Streptococcus pneumoniae, S.pneumoniae Type I infection
P.vulgaris GN-329 = assay: Treating effect on infections in mouse; assay type: in vivo; details: Proteus vulgaris, GN329, P.vulgaris GN-329 infection
P.aeruginosa SR24 = assay: Treating effect on infections in mouse; assay type: in vivo; details: Pseudomonas aeruginosa, P.aeruginosa SR24 infection
P.aeruginosa E-2 = assay: Treating effect on infections in mouse; assay type: in vivo; details: Pseudomonas aeruginosa, E2, P.aeruginosa E-2 infection
in vivo [2] = details: mouse
in vivo [3] = details: monkey

Structure (SMILES) | MIC (K. pneumoniae SR1) | MIC (P. mirabilis PR-4) | MIC (P. vulgaris CN-329) | MIC (S. agalactiae ATCC13813) | MIC (S. mitis ATCC9811) | MIC [1] | MIC (S. pneumoniae Type I) | MIC (S. pyogenes C-203) | ED50 (S.aureus Smith) | ED50 (S.pneumoniae Type I) | ED50 (P.vulgaris GN-329) | ED50 (P.aeruginosa SR24) | ED50 (P.aeruginosa E-2) | half-life (in vivo [2]) | half-life (in vivo [3])
CO/N=C(\C(=O)NC1C(=O)N2C(C(=O)[O-])=C(Cn3cc[n+]4ncccc34)CSC12)c1nsc(N)n1 (centres unmarked) [Control compound (1)] | 0.05 µg/mL (≈ 0.097 µM) | 0.1 µg/mL (≈ 0.194 µM) | 0.1 µg/mL (≈ 0.194 µM) | 0.1 µg/mL (≈ 0.194 µM) | 0.1 µg/mL (≈ 0.194 µM) | 0.78 µg/mL (≈ 1.51 µM) | 0.05 µg/mL (≈ 0.097 µM) | 13 ng/mL (≈ 0.0252 µM) | 0.76 mg/kg | 0.69 mg/kg | 0.81 mg/kg | 1.52 mg/kg | 4.73 mg/kg | 23.4 min | 76.8 min
N#CNC(=O)NCc1cc(-c2cc[n+](CC3=C(C(=O)[O-])N4C(=O)C(NC(=O)/C(=N\OCF)c5nsc(N)n5)C4SC3)cc2)c[nH]1 (centres unmarked) [I-1′] | 0.006 µg/mL (≈ 0.00915 µM) | 0.013 µg/mL (≈ 0.0198 µM) | 0.013 µg/mL (≈ 0.0198 µM) | 0.025 µg/mL (≈ 0.0381 µM) | 0.05 µg/mL (≈ 0.0763 µM) | 0.2 µg/mL (≈ 0.305 µM) | 0.013 µg/mL (≈ 0.0198 µM) | 6 ng/mL (≈ 0.00915 µM) | – | – | – | – | – | – | –

Reference: patent US6458950B1, “Compounds and pharmaceutical compositions containing the same” (Shionogi & Co., Ltd., priority 1997, dated 2002)
